Entries after “also recorded” stand apart in the source; their conditions may differ. Read-outs that look alike come from different tables or passages of the source.
Tests used:
SARS-CoV-2 Nsp13 [1] = molecular target: T1, SARS-CoV-2 Nsp13 (Severe acute respiratory syndrome coronavirus 2, UniProt P0DTD1); experiment: biochemical; conditions: for inhibition at 50 µM: read-out: inhibition of helicase activity
T1 construct: its nonstructural protein 13 (Nsp13) remains a clinically untapped target; His6-Zb-TEV (N, cleaved yes); host or cells: E. coli BL21 (DE3)

SARS-CoV-2 Nsp13 [2] = molecular target: T1, SARS-CoV-2 Nsp13; experiment: biochemical; conditions: for first-round screen, inhibition of Nsp13 ATPase activity (considered active): no detergent, t = 5 min, compound equimolar to ATP
SARS-CoV-2 Nsp13 [3] = molecular target: T1, SARS-CoV-2 Nsp13; type: binding; conditions: duplex-FL 100 nM, Nsp13 1 μM
[4] = test system: Vero E6, Vero ACE2-TMPRSS2 and A549 ACE2 cells; conditions: t = 22 hr
SARS-CoV-2 Nsp13 [5] = molecular target: T1, SARS-CoV-2 Nsp13; type: biochemical
SARS-CoV-2 Nsp13 [6] = molecular target: T1, SARS-CoV-2 Nsp13; type: biochemical; remark: listed apart in the source
[7] = molecular target: T2, Hepatitis C Virus (HCV) RNA helicase NS3 (Hepatitis C virus genotype 1b, UniProt Q9WMX2); type: biochemical
T2 construct: A truncated form of the Hepatitis C NS3 helicase protein; His-SUMO (N, cleaved yes); made in house; host or cells: E. coli BL21 (DE3) per the methods text

Tte UvrD helicase = type: biochemical; conditions: 3.02 nM UvrD, 1 mM ATP, 65 °C, increasing concentrations
[8] = test system: duplex-FL (labeled duplex DNA); type: binding; conditions: duplex-FL 100 nM, 10% DMSO, no protein
SARS-CoV-2 = test system: SARS-CoV-2; design: method as in PMID 35456026; conditions: micromolar concentrations, CFTR-expressing cells; cited from earlier work
[9] = test system: Chinese hamster ovary (CHO) cells expressing CFTR or colon carcinoma cells; conditions: cited from earlier work
Nsp13 = conditions: cited from earlier work

T2 sequence (Q9WMX2 1193-1657): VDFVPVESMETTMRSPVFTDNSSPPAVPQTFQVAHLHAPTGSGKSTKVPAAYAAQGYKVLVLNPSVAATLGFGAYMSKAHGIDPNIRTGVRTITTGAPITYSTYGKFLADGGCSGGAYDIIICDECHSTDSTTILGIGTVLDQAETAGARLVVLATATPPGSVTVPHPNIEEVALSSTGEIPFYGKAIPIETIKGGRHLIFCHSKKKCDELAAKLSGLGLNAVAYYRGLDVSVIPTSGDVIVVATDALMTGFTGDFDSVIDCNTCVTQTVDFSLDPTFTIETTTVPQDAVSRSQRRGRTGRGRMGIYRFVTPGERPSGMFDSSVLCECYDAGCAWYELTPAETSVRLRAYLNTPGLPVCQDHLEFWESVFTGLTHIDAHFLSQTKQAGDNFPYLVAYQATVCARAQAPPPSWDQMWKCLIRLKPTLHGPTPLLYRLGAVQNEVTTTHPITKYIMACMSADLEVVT

O=C(NCc1ccc(Cn2cc(Cl)cn2)cc1)c1nc(-c2ccc(C(F)(F)F)cc2)no1 [Analog 1]
IC50 (SARS-CoV-2 Nsp13 [1]): 131 ± 53 µM
fold higher helicase IC50 than IOWH-032 (SARS-CoV-2 Nsp13 [1]; 3.12 nM Nsp13, 0.01% Tween-20): > 10 fold
inhibition at 50 µM (SARS-CoV-2 Nsp13 [1]): > 25%

C=CCn1c(CSc2ccccc2[N+](=O)[O-])n[nH]c1=S [SSYA10-001]
inhibition of helicase activity (SARS-CoV-2 Nsp13 [1]): inhibited

O=C(Cn1cccc1-c1nc(-c2ccc(F)c(Br)c2)no1)NCc1ccc(F)cc1 [Analog 6]
inhibition at 50 µM (SARS-CoV-2 Nsp13 [1]): < 25%

CNC(=O)c1cc(COc2nnc(Nc3ccc(Cl)cc3)c3ccoc23)ccn1 [telatinib]
IC50 (SARS-CoV-2 Nsp13 [2]; 25 nM Nsp13, 0.01% Tween-20, read-out: ATPase inhibition IC50): ~114 µM
first-round screen, inhibition of Nsp13 ATPase activity (considered active) (SARS-CoV-2 Nsp13 [2]): active
IC50 (SARS-CoV-2 Nsp13 [1]): 20.4 ± 1.5 µM

Cc1ccc(-c2cc(C(=O)NCc3ccc(Oc4ccccc4)cc3)no2)cc1C [Analog 2]
inhibition of helicase activity (SARS-CoV-2 Nsp13 [1]; 50 μM analog, 3.12 nM Nsp13, 0.01% Tween-20): no inhibition
displacement of duplex-FL probe (SARS-CoV-2 Nsp13 [3]): no displacement of probe
toxicity against infection cell lines ([4]; up to 20 µM): did not show toxicity

O=C(NCc1ccc(Oc2ccccc2)cc1)c1nc(-c2cc(Br)c(O)c(Br)c2)no1 [IOWH-032]
mode of ATPase inhibition with respect to ATP (SARS-CoV-2 Nsp13 [5]): uncompetitive
mode of helicase inhibition with respect to nucleic acid substrate (SARS-CoV-2 Nsp13 [6]): mixed inhibition
concentration above which NS3 ATPase activity decreases ([7]; 250 nM NS3, 250 μM ATP): exceed 100 µM
sensitivity of NS3 ATPase activity ([7]; mid-micromolar concentrations of compound): nearly insensitive
effect on UvrD ATPase activity (ATP consumption) (Tte UvrD helicase): is not affected; also recorded: still demonstrated ATPase activity
interaction with duplex-FL probe alone [8]: does not interact with probe alone; also recorded: no direct interaction
reduction in cell viability ([4]; 4 μM, across all mammalian cell lines tested): ~50%
reduction of SARS-CoV-2 viral loads compared to untreated cells (SARS-CoV-2): > 2 log10
toxicity [9]: not toxic

C[C@H](NC(=O)Cc1cc(F)cc(F)c1)C(=O)N[C@@H]1C(=O)N(C)c2ccccc2-c2ccccc21 [dibenzazepine]
ATPase inhibition on titration in the presence of detergent (SARS-CoV-2 Nsp13 [2]; Tween-20, up to high micromolar concentrations): no inhibition
first-round screen, inhibition of Nsp13 ATPase activity (considered active) (SARS-CoV-2 Nsp13 [2]): active

Cc1ccc(COc2c(Br)cc(CNc3ccc(Oc4ccccc4)cc3)cc2Br)cc1 [Analog 5]
inhibition at 50 µM (SARS-CoV-2 Nsp13 [1]): < 25%

O=C1O[C@H]2[C@@H]3OC(=O)c4cc(O)c(O)c(O)c4-c4c(O)c(O)c5oc(=O)c6c(c(O)c(O)c7oc(=O)c4c5c76)-c4c(cc(O)c(O)c4O)C(=O)OC[C@H]3OC(O)[C@@H]2OC(=O)c2cc(O)c(O)c(O)c2-c2c1cc(O)c(O)c2O (mixture of isomers) [punicalagin]
Kd (Nsp13): ~0.02 µM

From paper PMC11267572, “A Repurposed Drug Interferes with Nucleic Acid to Inhibit the Dual Activities of Coronavirus Nsp13” (ACS Chemical Biology, 2024)
